Reference: article PMC2362735, “New semisynthetic vinca alkaloids: chemical, biochemical and cellular studies” (British Journal of Cancer, 1999)

Legend:
[1] = test system: Human neuroblastoma cell line (SH-SY5Y); experiment: Microculture tetrazolium assay (MTA), cytotoxicity; details: read-out: Cytotoxicity MTA IC50, 4-day treatment, MTT
Text: The numerous antimitotic drugs already developed and therapeu- tically used for a large number of pathologies belong to different classes based on their chemical structure and other distinctive features. Antimitotic drugs usually target the tubulin/microtubule network of the cytoskeleton that is formed by assembly of cyto- plasmic tubulin dimers. The stability of the different microtubular structures varies considerably; some of their functions depend on their lability. The lability is augmented by the extreme sensitivity to various drugs. Several synthetic and natural compounds interact specifically with tubulin and/or microtubule, fundamentally destroying its dynamic character and leading to cell death. […] Because of their extensive clinical use, it is important to synthesize additional agents having at least the same biological activity. […] Nevertheless, it is unclear yet how the anti-calmodulin activity of these drugs is related to their desired and undesired pharmacological effects. […] The synthesis of the KAR derivatives are presented. […] Taxol, GTP and trifluoperazine were purchased from Sigma. All organic reagents for synthesis of the new compounds were obtained from Aldrich and were of the highest grade. All other chemicals were reagent grade commercial preparations. […] Tubulin was stored in 1 M sucrose, 10 mM sodium phosphate buffer, 0.5 mM magnesium chloride and 0.1 mM GTP, pH 7.0, at -80C and dialysed against the appropriate buffer before use. […] PFK, aldolase and glycerol-3-phosphate dehydrogenase- triosephosphate isomerase purified from rabbit skeletal muscle were purchased in ammonium sulphate suspensions from Sigma or Boehringer. The enzyme suspensions were centrifuged at 10 000g for 5 min. The pellets were suspended in the appropriate buffer, then the enzymes were gel filtered or dialysed in the same buffer to remove ammonium sulphate. […] (Figure 1B; R1 , CH3; R2 , CH2 CH2 Cl). […] After 2 h incubation at room temperature, 200 ml dried toluene was added to the reaction mixture. […] The mixture was stirred for 30 min. After separation of the organic phase, it was washed with water (3 x 30 ml) and dried with potassium sulphate and evaporated on a water bath of 35-40C at 20-27 hPa. The resulting material was chromatographed on silica gel (500 g, bead size of 0.040- 0.063 mm) column (30 mm x 500 mm) using ethyl acetate/ethanol (9:1) mixture as eluent. […] The mixture was kept for 4 h at room temperature and then evaporated on a water bath at 40C under a vacuum of 80 hPa to a final volume of 5-6 ml. […] (Figure 1B, R1 , CHO; R2 , CH2 CH2 Cl). […] Synthesis of KAR-4 [3-allyl-2,4-dioxo-3,5-spiro-oxazolidino- 4-deacetoxy-vinblastine] (Figure 1B; R1 , CH3; R2 , CH2 CH=CH2 ). […] NMR measurements were carried out on a Varian Unity plus-500 instrument (500 MHz for 1H and 125 MHz for 13C) in DMSO. Chemical shifts were determined relative to dTMS = 0.00 p.p.m. 1H and 13C signal assignments were verified by a concerted use of two-dimensional 1H-1H and 1H-13C shift correlation methods (DQFCOSY, HSQC, HMBC) and NOESY experiments. The gradient-enhanced DQFCOSY, HSQC, HMBC and NOESY experiments were recorded by using the standard spectrometer software package. A mixing time of tmix = 0.5 s was used for the NOESY experiments.

[2] = test system: tubulin/microtubule, PFK-bundled microtubules; experiment: Tubulin polymerization with or without PFK (bundled vs single microtubules): turbidity and pelleting with SDS-PAGE; assay type: biochemical, calf; details: 10 M tubulin, 2 M drug
Text: The numerous antimitotic drugs already developed and therapeu- tically used for a large number of pathologies belong to different classes based on their chemical structure and other distinctive features. Antimitotic drugs usually target the tubulin/microtubule network of the cytoskeleton that is formed by assembly of cyto- plasmic tubulin dimers. The stability of the different microtubular structures varies considerably; some of their functions depend on their lability. The lability is augmented by the extreme sensitivity to various drugs. Several synthetic and natural compounds interact specifically with tubulin and/or microtubule, fundamentally destroying its dynamic character and leading to cell death. […] Because of their extensive clinical use, it is important to synthesize additional agents having at least the same biological activity. […] Nevertheless, it is unclear yet how the anti-calmodulin activity of these drugs is related to their desired and undesired pharmacological effects. […] The synthesis of the KAR derivatives are presented. […] Taxol, GTP and trifluoperazine were purchased from Sigma. All organic reagents for synthesis of the new compounds were obtained from Aldrich and were of the highest grade. All other chemicals were reagent grade commercial preparations. […] Tubulin was stored in 1 M sucrose, 10 mM sodium phosphate buffer, 0.5 mM magnesium chloride and 0.1 mM GTP, pH 7.0, at -80C and dialysed against the appropriate buffer before use. […] PFK, aldolase and glycerol-3-phosphate dehydrogenase- triosephosphate isomerase purified from rabbit skeletal muscle were purchased in ammonium sulphate suspensions from Sigma or Boehringer. The enzyme suspensions were centrifuged at 10 000g for 5 min. The pellets were suspended in the appropriate buffer, then the enzymes were gel filtered or dialysed in the same buffer to remove ammonium sulphate. […] (Figure 1B; R1 , CH3; R2 , CH2 CH2 Cl). […] After 2 h incubation at room temperature, 200 ml dried toluene was added to the reaction mixture. […] The mixture was stirred for 30 min. After separation of the organic phase, it was washed with water (3 x 30 ml) and dried with potassium sulphate and evaporated on a water bath of 35-40C at 20-27 hPa. The resulting material was chromatographed on silica gel (500 g, bead size of 0.040- 0.063 mm) column (30 mm x 500 mm) using ethyl acetate/ethanol (9:1) mixture as eluent. […] The mixture was kept for 4 h at room temperature and then evaporated on a water bath at 40C under a vacuum of 80 hPa to a final volume of 5-6 ml. […] (Figure 1B, R1 , CHO; R2 , CH2 CH2 Cl). […] Synthesis of KAR-4 [3-allyl-2,4-dioxo-3,5-spiro-oxazolidino- 4-deacetoxy-vinblastine] (Figure 1B; R1 , CH3; R2 , CH2 CH=CH2 ). […] NMR measurements were carried out on a Varian Unity plus-500 instrument (500 MHz for 1H and 125 MHz for 13C) in DMSO. Chemical shifts were determined relative to dTMS = 0.00 p.p.m. 1H and 13C signal assignments were verified by a concerted use of two-dimensional 1H-1H and 1H-13C shift correlation methods (DQFCOSY, HSQC, HMBC) and NOESY experiments. The gradient-enhanced DQFCOSY, HSQC, HMBC and NOESY experiments were recorded by using the standard spectrometer software package. A mixing time of tmix = 0.5 s was used for the NOESY experiments. […] Mass spectrum was recorded on a Kratos MS 80 instrument using FAB.

[3] = test system: mouse leukaemia P388; design: method as in Orosz et al, 1997a; details: ref Orosz et al, 1997a, cited from earlier work

CC[C@]1(O)C[C@@H]2CN(CCc3c([nH]c4ccccc34)[C@@](C(=O)OC)(c3cc4c(cc3OC)N(C)[C@@H]3[C@]45CCN4CC=C[C@@](CC)(C[C@@]36OC(=O)N(CCCl)C6=O)[C@H]45)C2)C1 [KAR-2, 3′-(β-chloroethyl)-2′,4′-dioxo-3,5′-spiro-oxazolidino-4-deacetoxy-vinblastine]
IC50 [1]: 310 nM | tubulin partition in pelleting experiment, without PFK ([2]; 20 µM taxol, no PFK, SDS-PAGE of supernatant and pellet): practically all tubulin appears in the super- natants | tubulin partition in pelleting experiment, with PFK (bundled microtubules) ([2]; 2 M PFK, 20 µM taxol, SDS-PAGE of supernatant and pellet): virtually no depolymer- izing effect | tubulin assembly by turbidity in the presence of PFK ([2]; 2 M PFK, turbidity at 350 nm): PFK can overcome the inhibitory effect of KAR-2 on tubulin polymerization | T/C ([3]; P388, 1 mg kg-1, eightfold treatment): 174% | neurotoxic side-effects (e.g. paralysis of bladder or lower extremities) ([3]; P388 in vivo tests): did not induce neurotoxic side-effects
